Test system: reporter gene (firefly luciferase) expression in the liver
Assay: Luciferase expression in mouse liver following tail vein injection of mRNA lipid nanoparticles
Type: in vivo
Details: increasing concentration of compound I-5 in the lipid nanoparticle
Experimental: Lipid nanoparticles were formulated with short chain PEG lipid at various molar ratios as described in Formulation Example 1. Relative activity was determined by measuring luciferase expression in the mouse liver 4 hours following administration via tail vein injection.
Increasing concentration of compound I-5 reduced the overall expression of the reporter gene (firefly luciferase) in the liver (see, e.g., Table 4). Lipid nanoparticle systems that included compound I-5 at a concentration of 5 mol % reduced the amount of expression by ˜50% while lipid nanoparticle systems including compound I-5 at 10 mol % reduced to 20% of benchmark (lipid nanoparticle system with no compound I-5). […] However, 2.5 mol % compound I-5 changed the expression kinetic. […] Lipid nanoparticle systems with compound I-5 at a concentration of 2.5 mol % also provided a benefit of prolonged expression since at 16 hours the same system had ˜4-fold expression in comparison to the lipid nanoparticle system with no compound I-5.

CCCCCCCCCCCCCCN(CCCCCCCCCCCCCC)C(=O)CCC(=O)OCCOCCOCCOC [compound I-5]
overall expression of the reporter gene (firefly luciferase) in the liver: reduced
